In article PMC10176470, “Engaging a Non-catalytic Cysteine Residue Drives Potent and Selective Inhibition of Caspase-6” (Journal of the American Chemical Society, 2023):
Like-named read-outs stand apart in the source and are kept apart here.

Assays:
Format in all cases: cell-based
[1] = target: proteins of HEK293T cells transiently overexpressing caspase-6 (Homo sapiens, UniProt Q9NTK5); conditions: protein OLA1 (Q9NTK5), analysis C6
[2] = target: proteins of HEK293T cells transiently overexpressing caspase-6 (Homo sapiens, UniProt Q9P258); conditions: exp_ref Probe; protein RCC2 (Q9P258); analysis C6
[3] = target: proteins of HEK293T cells transiently overexpressing caspase-6 (Homo sapiens, UniProt P13647); conditions: Probe; protein KRT5 P13647
[4] = target: proteins of HEK293T cells transiently overexpressing caspase-6 (Homo sapiens, UniProt P17987); conditions: protein TCP1 (P17987)
[5] = target: proteins of HEK293T cells transiently overexpressing caspase-6 (Homo sapiens, UniProt Q13148); conditions: protein TARDBP (Q13148); exp_ref Probe; analysis C6
[6] = target: T1, proteins of HEK293T cells transiently overexpressing caspase-6 (Homo sapiens, UniProt Q96RQ3)
T1 sequence (Q96RQ3 42-725): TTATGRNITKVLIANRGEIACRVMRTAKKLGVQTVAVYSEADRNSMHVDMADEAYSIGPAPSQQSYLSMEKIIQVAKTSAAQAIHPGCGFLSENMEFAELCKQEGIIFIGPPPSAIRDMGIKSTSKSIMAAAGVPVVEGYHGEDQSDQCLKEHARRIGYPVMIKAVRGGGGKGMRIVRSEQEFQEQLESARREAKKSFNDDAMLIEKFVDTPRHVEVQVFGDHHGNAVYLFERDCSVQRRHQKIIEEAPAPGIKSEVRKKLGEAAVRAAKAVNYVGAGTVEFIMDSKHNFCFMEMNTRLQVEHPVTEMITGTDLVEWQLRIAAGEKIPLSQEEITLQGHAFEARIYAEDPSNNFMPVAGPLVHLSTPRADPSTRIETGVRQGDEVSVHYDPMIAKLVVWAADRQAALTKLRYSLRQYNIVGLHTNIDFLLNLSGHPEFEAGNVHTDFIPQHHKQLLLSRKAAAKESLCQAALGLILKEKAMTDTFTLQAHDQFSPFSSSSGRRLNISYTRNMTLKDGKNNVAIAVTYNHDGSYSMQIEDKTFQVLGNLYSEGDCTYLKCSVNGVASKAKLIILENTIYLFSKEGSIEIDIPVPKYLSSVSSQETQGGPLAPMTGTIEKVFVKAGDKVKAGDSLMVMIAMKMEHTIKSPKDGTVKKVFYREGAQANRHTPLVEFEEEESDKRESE

[7] = target: proteins of HEK293T cells transiently overexpressing caspase-6 (Homo sapiens, UniProt P04843); conditions: exp_ref Probe; protein RPN1 (P04843); analysis C6
[8] = target: proteins of HEK293T cells transiently overexpressing caspase-6 (Homo sapiens, UniProt Q15084); conditions: exp_ref Probe; protein PDIA6 (Q15084); analysis C6
[9] = target: proteins of HEK293T cells transiently overexpressing caspase-6 (Homo sapiens, UniProt P46379); conditions: exp_ref Probe; protein BAG6 (P46379); analysis C6
[10] = target: proteins of HEK293T cells transiently overexpressing caspase-6 (Homo sapiens, UniProt Q9H7Z7); conditions: protein PTGES2 (Q9H7Z7)
[11] = target: proteins of HEK293T cells transiently overexpressing caspase-6 (Homo sapiens, UniProt P07737); conditions: exp_ref Probe; protein PFN1 (P07737); analysis C6
[12] = target: T2, proteins of HEK293T cells transiently overexpressing caspase-6 (Homo sapiens, UniProt Q07065); conditions: protein CKAP4 (Q07065)
T2 sequence (Q07065 1-602): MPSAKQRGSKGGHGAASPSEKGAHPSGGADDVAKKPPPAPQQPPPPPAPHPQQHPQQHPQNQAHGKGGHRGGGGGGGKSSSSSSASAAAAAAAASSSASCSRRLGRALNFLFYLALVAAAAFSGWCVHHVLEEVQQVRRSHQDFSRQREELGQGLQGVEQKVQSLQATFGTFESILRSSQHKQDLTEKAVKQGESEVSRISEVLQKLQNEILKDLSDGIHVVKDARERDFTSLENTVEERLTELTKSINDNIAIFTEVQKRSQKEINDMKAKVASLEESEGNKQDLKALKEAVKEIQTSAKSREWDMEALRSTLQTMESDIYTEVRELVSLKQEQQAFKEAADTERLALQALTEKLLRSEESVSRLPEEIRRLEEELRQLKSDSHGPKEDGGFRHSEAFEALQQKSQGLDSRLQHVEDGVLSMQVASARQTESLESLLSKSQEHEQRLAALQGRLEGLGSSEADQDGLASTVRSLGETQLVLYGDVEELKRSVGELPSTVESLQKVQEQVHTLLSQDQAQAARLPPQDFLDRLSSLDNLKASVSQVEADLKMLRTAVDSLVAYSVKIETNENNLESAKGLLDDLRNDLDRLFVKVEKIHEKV

[13] = target: T3, proteins of HEK293T cells transiently overexpressing caspase-6 (Homo sapiens, UniProt O43169); conditions: protein CYB5B (O43169)
T3 sequence (O43169 16-150): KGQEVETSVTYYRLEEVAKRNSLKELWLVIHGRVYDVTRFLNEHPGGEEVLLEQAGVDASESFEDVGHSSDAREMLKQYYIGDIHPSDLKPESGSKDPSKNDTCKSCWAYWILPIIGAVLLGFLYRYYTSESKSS

[14] = target: proteins of HEK293T cells transiently overexpressing caspase-6 (Homo sapiens, UniProt P08758); conditions: exp_ref Probe; protein ANXA5 (P08758); analysis C6
Sequence of proteins of HEK293T cells transiently overexpressing caspase-6 (Homo sapiens, UniProt P08758) (P08758 whole entry): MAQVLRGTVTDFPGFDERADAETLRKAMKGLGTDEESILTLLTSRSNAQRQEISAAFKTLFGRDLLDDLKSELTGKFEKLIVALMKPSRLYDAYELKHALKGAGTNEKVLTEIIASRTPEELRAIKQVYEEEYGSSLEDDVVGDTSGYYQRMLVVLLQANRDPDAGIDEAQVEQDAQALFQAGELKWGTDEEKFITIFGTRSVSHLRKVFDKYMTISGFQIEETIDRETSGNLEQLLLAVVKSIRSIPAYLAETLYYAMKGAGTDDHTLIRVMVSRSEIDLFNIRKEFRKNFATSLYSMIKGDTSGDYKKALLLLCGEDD

Sequence of proteins of HEK293T cells transiently overexpressing caspase-6 (Homo sapiens, UniProt P17987) (P17987 whole entry): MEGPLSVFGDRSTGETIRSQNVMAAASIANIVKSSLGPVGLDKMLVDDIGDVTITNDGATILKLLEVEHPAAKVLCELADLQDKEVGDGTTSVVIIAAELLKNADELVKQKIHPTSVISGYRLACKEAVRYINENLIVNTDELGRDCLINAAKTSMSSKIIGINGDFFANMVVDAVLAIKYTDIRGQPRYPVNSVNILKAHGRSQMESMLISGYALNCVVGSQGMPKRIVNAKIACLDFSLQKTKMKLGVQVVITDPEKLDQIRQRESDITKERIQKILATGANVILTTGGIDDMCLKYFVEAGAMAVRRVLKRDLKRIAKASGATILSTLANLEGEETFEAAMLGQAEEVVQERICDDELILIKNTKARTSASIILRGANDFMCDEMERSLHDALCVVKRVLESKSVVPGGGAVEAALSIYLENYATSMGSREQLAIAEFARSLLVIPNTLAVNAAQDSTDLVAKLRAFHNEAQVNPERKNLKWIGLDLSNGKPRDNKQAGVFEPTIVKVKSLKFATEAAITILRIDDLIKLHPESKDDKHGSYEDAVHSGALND
Sequence of proteins of HEK293T cells transiently overexpressing caspase-6 (Homo sapiens, UniProt Q9H7Z7) (Q9H7Z7 whole entry): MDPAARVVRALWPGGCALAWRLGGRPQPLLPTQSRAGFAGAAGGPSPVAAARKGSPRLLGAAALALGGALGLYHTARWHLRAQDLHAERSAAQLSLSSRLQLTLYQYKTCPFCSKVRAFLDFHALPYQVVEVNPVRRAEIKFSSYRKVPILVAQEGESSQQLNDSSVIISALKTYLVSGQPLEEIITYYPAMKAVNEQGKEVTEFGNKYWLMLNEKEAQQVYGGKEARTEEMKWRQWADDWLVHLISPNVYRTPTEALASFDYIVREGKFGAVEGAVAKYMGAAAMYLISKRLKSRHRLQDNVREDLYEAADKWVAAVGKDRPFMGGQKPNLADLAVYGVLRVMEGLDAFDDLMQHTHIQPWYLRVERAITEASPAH
Sequence of proteins of HEK293T cells transiently overexpressing caspase-6 (Homo sapiens, UniProt P46379) (P46379 whole entry): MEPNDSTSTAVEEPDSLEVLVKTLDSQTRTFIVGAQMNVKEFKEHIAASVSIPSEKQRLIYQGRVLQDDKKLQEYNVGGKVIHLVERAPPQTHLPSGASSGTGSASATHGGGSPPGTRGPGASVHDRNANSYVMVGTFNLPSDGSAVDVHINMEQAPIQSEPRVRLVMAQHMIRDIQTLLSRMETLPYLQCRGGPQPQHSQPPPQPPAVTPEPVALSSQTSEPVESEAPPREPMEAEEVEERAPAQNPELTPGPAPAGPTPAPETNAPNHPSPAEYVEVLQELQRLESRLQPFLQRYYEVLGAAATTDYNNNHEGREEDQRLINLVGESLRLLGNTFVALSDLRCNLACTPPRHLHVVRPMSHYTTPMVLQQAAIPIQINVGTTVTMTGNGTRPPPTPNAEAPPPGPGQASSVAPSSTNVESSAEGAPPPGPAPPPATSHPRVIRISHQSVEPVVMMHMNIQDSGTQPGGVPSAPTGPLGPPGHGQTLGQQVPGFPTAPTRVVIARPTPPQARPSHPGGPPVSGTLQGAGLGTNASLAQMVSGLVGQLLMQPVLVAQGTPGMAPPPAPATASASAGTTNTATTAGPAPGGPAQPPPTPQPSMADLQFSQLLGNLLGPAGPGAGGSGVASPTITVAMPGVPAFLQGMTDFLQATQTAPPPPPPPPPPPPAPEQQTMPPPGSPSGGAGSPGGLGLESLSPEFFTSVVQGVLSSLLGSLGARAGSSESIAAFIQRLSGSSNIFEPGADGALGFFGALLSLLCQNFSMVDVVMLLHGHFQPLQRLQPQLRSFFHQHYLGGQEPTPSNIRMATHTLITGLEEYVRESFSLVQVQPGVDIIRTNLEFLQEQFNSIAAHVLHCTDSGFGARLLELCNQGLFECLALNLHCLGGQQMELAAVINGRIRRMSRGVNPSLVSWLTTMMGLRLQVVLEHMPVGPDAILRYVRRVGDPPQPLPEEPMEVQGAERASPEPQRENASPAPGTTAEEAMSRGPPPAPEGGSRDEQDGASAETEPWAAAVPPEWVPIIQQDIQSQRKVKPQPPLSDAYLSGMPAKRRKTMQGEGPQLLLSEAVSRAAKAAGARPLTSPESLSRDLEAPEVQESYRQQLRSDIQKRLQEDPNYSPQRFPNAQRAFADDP
Sequence of proteins of HEK293T cells transiently overexpressing caspase-6 (Homo sapiens, UniProt Q15084) (Q15084 20-440): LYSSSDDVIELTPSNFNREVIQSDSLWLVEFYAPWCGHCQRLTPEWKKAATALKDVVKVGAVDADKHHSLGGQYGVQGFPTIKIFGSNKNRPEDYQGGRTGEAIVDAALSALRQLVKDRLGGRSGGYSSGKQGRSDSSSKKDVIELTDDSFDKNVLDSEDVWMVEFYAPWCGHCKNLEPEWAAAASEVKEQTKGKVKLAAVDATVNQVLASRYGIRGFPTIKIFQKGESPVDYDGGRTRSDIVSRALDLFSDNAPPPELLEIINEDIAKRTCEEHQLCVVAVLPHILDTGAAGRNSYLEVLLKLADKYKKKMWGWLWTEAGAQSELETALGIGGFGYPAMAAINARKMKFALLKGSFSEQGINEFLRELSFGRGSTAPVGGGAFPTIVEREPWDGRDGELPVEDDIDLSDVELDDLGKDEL
Sequence of proteins of HEK293T cells transiently overexpressing caspase-6 (Homo sapiens, UniProt P04843) (P04843 24-607): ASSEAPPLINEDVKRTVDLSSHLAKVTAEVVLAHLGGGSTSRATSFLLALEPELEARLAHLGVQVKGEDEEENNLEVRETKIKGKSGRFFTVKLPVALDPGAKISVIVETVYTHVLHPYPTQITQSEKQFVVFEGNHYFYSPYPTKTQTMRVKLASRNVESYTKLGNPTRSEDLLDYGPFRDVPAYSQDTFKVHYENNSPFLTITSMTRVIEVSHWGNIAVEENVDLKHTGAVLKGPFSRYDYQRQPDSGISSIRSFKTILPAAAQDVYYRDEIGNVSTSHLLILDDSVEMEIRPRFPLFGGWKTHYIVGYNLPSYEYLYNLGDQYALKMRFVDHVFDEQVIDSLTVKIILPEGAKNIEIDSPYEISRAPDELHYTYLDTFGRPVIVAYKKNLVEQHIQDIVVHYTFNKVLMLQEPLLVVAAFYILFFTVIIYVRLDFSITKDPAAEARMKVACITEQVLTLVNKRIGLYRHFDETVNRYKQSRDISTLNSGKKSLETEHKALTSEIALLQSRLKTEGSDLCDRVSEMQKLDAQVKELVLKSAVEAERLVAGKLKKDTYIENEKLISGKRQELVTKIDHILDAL
Sequence of proteins of HEK293T cells transiently overexpressing caspase-6 (Homo sapiens, UniProt Q13148) (Q13148 whole entry): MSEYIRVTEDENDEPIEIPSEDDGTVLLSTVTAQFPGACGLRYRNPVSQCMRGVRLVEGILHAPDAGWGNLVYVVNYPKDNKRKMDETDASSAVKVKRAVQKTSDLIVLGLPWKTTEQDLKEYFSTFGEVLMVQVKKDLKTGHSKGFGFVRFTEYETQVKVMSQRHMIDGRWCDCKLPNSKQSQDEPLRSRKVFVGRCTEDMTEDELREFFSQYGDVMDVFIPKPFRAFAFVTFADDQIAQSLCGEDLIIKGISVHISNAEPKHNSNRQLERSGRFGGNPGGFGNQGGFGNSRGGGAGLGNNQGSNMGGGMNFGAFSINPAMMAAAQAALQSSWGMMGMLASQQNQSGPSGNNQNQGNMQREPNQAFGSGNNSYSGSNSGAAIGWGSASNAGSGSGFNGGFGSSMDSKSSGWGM
Sequence of proteins of HEK293T cells transiently overexpressing caspase-6 (Homo sapiens, UniProt Q9P258) (Q9P258 whole entry): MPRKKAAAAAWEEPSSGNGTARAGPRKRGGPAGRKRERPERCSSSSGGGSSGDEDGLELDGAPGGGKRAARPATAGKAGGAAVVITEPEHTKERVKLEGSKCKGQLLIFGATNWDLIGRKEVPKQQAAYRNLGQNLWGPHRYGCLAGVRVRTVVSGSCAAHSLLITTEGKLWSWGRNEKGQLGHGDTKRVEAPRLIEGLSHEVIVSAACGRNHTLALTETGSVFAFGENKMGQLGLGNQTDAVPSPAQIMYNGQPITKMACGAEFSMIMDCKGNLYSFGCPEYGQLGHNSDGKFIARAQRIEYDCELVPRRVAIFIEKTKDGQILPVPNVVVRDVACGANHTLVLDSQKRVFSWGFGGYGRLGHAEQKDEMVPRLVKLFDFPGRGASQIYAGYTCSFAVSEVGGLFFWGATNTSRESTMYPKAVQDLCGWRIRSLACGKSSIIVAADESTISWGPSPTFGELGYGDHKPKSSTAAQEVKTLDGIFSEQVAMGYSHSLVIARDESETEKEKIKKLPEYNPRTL
Sequence of proteins of HEK293T cells transiently overexpressing caspase-6 (Homo sapiens, UniProt P07737) (P07737 whole entry): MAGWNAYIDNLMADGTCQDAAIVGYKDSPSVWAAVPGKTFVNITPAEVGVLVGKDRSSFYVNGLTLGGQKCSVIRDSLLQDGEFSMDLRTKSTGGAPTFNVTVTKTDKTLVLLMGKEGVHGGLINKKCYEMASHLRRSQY

C#CCOc1ccc([C@@H]2C[C@@H](C(=O)Nc3ccc(OC(F)(F)F)cc3)CN(S(=O)(=O)C=C)C2)cc1 (relative stereo) [13-t]
enrich.exp.med.lin ([1]; Expt Probe): 6.528
enrich.exp.med.log2 ([1]; Expt Probe): 2.707
enrich.exp.med ([1]; exp_ref Probe): 2.707
enrich.exp.med [2]: 0.2232
enrich.exp.med [3]: -6.8
enrich.exp.med ([4]; exp_ref Probe, analysis C6): 0.8619
enrich.exp.med.lin [4]: 1.8174
enrich.exp.med.log2 [4]: 0.8619
enrich.exp.med [5]: 1.294
enrich.exp.med ([6]; Probe, protein MCCC1 Q96RQ3): -2.028
enrich.exp.med.lin ([6]; protein MCCC1 (Q96RQ3)): 0.2451
enrich.exp.med.log2 ([6]; protein MCCC1 (Q96RQ3)): -2.028
enrich.exp.med [7]: 1.117
enrich.exp.med [8]: 0.9602
enrich.exp.med [9]: 0.9575
enrich.exp.med.lin [10]: 8.188
enrich.exp.med.log2 [10]: 3.034
enrich.exp.med.lin ([10]; Expt Probe, analysis C6): 8.188
enrich.exp.med.log2 ([10]; Expt Probe, analysis C6): 3.034
enrich.exp.med ([10]; exp_ref Probe, analysis C6): 3.034
enrich.exp.med [11]: -0.1003
enrich.exp.med.lin [12]: 4.971
enrich.exp.med.log2 [12]: 2.313
enrich.exp.med.lin ([12]; Expt Probe, analysis C6): 4.971
enrich.exp.med.log2 ([12]; Expt Probe, analysis C6): 2.313
enrich.exp.med ([12]; exp_ref Probe, analysis C6): 2.313
enrich.exp.med.lin [13]: 2.907
enrich.exp.med.log2 [13]: 1.54
enrich.exp.med ([13]; exp_ref Probe, analysis C6): 1.54
enrich.exp.med [14]: 0.2384
